“Also recorded” adds a separate entry of the source.
Experiments:
[1] = biological target: integrins in an immobilized erythrocyte ghost membrane; assay: SAW biosensor binding of disintegrins to immobilized erythrocyte ghosts; design: species or system human; details: for Kd / kon / koff: SAW (sam-X), erythrocyte ghosts immobilized via hydrophobic interactions (CH3-SAM), running buffer PBS pH 7.4, 25 °C, 20 μL/min, 1:1 binding model, experiments in triplicate; for Kd: KD = koff/kon; for kon: slope of kobs vs c, kobs of five channels averaged; for koff: y-intercept of kobs vs c; for KD (range in words): SAW, erythrocyte ghost membrane; for KD (range in words) / phase response on erythrocyte ghosts vs. unspecific binding to GUVs: result in words; for specificity of binding to erythrocyte ghost membrane: authors' conclusion in words; for phase response on erythrocyte ghosts vs. unspecific binding to GUVs: titration with increasing concentrations of disintegrins, GUVs (bovine brain phospholipids) on a parallel channel
Experimental: To detect disintegrin/erythrocyte ghost binding at the molecular level, a surface acoustic wave (SAW) biosensor was used (Figure 1). The machines of SAW instruments use a detection technology resembling a highly sensitive “weight detector”. Binding processes are measured by real mass changes on the surface. Basically, the sensor is a chip, whereby the surface is excited to oscillate acoustically. Acoustic waves are generated in the piezoelectric material and propagate laterally. Response to changes in the surface-bound material and configuration is achieved through a proprietary method that produces a modified oscillation. […] The phase of the wave is shifted on mass changes. A change in amplitude indicates viscoelastic and conformational characteristics. Both effects can be differentiated and detected independently for interaction analysis.
A similar amount of erythrocyte ghosts and GUVs were successfully immobilized on (1) positively poly-L-lysin charged 2D CM-dextran, (2) EDC/NHS-activated, negatively charged 2D CM-dextran, and (3) hydrophobic–CH3-SAM. The positively charged disintegrins were repelled from all charged surfaces; therefore, immobilization via hydrophobic interactions was chosen for the main core of experiments (Figure 2). Disintegrins were diluted in PBS to achieve similar immobilization levels; in a pre-experiment, all ligands were diluted 1:3, and then dilutions were adjusted. Experiments were performed in triplicate, starting with obtustatin, then echistatin, then vice versa. The baseline was stable; at immobilization of GUVs on a chip, a 14° phase shift was detected vs. 13.1° for the erythrocyte ghosts. In this set of experiments, GUVs formed from the phospholipid fraction of the bovine brain were used as a negative control for erythrocyte ghosts.
Based on the 1:1 binding model, a KD value was calculated depending on the fit model applied for the interaction of disintegrins with integrins in the erythrocyte ghosts. Data were obtained from sensor signals after the administration of increasing concentrations of disintegrins using the monomolecular growth model. The observed rate constants (kobs) were determined from the rising phase of the sensor response curves for each analyte concentration and plotted against the corresponding disintegrin concentrations. A linear regression was performed on the dataset according to the equationkobs = kon × c + koff where kon represents the association rate constant, koff is the dissociation rate constant, and c is the concentration of the injected analyte (see Figure 3C,D).
Erythrocyte membranes were obtained by the method of Dodge, Mitchell & Hanahan, as described. To obtain erythrocyte ghosts, after the last wash the RBC pellet was mixed with nine volumes of ice-cold lysis buffer (5 mM sodium phosphate) and stirred for 15 min at 0 °C. Subsequently, the unsealed erythrocyte ghosts were pelleted by centrifugation at 37,000× g for 10 min at 0 °C. After the centrifugation the ghosts were washed with ice-cold lysis buffer until residual hemoglobin was not visible. The RBC ghosts were suspended in about 0.5 volume of PBS and were kept frozen at −30 °C until use.
Biosensor investigations were performed using a sam®-X system Surface Acoustic Wave biosensor supplied by SAW instruments (GmbH, Bonn, Germany), as described before. Gold-coated sensors were incubated in a solution of 11-mercaptoundecanoic acid (10 mM) in ethanol abs. forming a self-assembled monolayer by binding of the sulfur headgroups to the gold surface ([…]). The carboxyl groups were activated with 200 mM N-ethyl-N-(dimethylaminopropyl)-carbodiimide (EDC) and 50 mM N-hydroxysuccinimide (NHS) to bind disintegrins and/or vesicles. An excess of activated unreacted NHS esters was blocked by 1 M ethanolamine (pH 8.5). Running buffer was PBS containing 2.7 mM potassium chloride and 137 mM sodium chloride (pH 7.4 at 25 °C); flow rate was 40/20 μL/min. […]

α1β1 integrin = details: cited from earlier work
Source text: (§1) Integrin-mediated binding is important for the metastatic dissemination of different types of cancer cells. […] Obtustatin is one of the shortest disintegrins yet described, containing 41 amino acids. It has a similar pattern of cysteines to the other disintegrin echistatin but with a KTS motif rather than a classic RGD in its active site. […] Echistatin is a 49-amino-acid peptide belonging to the disintegrins family derived from Echis carinatus snake venom. […] Obtustatin, comprising only 41 amino acid residues, is one of the shortest disintegrins characterized to date. It was purified from the venom of the Subcaucasian subspecies of the Levantine viper—Macrovipera ...

[2] = biological target: αVβ3 integrin (Homo sapiens) (UniProt P06756); details: cited from earlier work
[3] = test system: platelet aggregation and cellular adhesion; details: background statement; ref [14] (preceding sentence); cited from earlier work
Source text: Disintegrins are the large family of anti-adhesive proteins found in viper venom, whose structural and functional complexity contrasts with their small molecular size. Echistatin is a 49-amino-acid peptide belonging to the disintegrins family derived from Echis carinatus snake venom. […] Obtustatin, comprising only 41 amino acid residues, is one of the shortest disintegrins characterized to date. It was purified from the venom of the Subcaucasian subspecies of the Levantine viper—Macrovipera ...

αVβ3 integrin = details: cited from earlier work
Source text: as §1

[4] = stated in abstract without reference

UniProt P06756, sequence (P06756 31-1048, chain 1 of 2): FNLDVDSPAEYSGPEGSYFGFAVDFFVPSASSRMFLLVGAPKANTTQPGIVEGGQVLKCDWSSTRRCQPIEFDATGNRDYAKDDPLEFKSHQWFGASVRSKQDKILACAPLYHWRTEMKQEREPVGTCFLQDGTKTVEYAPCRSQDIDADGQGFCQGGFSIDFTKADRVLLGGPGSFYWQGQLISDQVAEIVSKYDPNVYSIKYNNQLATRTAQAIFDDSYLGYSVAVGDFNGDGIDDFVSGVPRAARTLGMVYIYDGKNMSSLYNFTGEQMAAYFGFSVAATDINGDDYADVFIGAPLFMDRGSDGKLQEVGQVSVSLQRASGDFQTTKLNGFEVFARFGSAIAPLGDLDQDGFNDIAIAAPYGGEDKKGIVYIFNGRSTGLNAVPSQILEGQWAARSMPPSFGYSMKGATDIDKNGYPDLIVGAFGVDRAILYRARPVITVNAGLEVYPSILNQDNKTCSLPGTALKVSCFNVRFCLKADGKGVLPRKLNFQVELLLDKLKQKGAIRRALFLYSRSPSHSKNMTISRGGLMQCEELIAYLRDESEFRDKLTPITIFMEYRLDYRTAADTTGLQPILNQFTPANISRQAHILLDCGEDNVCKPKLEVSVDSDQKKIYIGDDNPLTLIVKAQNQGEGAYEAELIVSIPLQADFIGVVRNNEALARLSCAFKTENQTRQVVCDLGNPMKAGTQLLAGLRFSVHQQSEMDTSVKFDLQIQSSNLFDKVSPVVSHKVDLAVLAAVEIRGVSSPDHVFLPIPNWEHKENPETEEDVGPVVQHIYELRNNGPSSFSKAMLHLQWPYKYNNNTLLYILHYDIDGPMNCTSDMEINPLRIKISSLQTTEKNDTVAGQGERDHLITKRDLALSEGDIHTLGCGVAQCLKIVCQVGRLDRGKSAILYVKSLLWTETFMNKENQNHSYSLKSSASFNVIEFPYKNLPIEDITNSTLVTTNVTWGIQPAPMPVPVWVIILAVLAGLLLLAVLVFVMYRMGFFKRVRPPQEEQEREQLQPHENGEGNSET
UniProt P06756, sequence (P05106 27-788, chain 2 of 2, further chain): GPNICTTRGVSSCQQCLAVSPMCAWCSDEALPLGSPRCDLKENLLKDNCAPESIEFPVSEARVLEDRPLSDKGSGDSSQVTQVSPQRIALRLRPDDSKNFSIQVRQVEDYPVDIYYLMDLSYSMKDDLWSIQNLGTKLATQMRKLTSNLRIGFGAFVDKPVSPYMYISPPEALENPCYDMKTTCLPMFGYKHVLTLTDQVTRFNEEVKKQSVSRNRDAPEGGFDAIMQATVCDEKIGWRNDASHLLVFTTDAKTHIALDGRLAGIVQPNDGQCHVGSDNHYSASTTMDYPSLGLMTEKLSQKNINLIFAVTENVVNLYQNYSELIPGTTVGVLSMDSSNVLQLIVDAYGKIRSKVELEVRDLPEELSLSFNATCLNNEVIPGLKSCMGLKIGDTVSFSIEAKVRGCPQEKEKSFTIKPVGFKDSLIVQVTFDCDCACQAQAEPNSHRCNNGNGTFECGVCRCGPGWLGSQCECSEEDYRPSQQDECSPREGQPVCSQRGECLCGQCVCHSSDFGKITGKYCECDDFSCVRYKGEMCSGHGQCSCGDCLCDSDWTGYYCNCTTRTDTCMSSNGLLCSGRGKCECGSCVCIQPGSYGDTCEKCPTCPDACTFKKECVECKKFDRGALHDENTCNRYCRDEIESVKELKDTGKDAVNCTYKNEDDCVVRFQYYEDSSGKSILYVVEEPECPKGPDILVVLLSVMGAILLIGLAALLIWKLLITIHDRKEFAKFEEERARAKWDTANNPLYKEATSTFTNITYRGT

| Substance | Kd [1] | kon [1] | koff [1] | KD (range in words) [1] | specificity of binding to erythrocyte ghost membrane [1] | phase response on erythrocyte ghosts vs. unspecific binding to GUVs [1] | α1β1 integrin blockade, selectivity (α1β1 integrin; ref [17],[18],[19]) | α1β1 integrin inhibition (α1β1 integrin; [4]) | Ki [2] | inhibition of platelet aggregation and cellular adhesion [3] | αVβ3 integrin antagonism (αVβ3 integrin; ref [20],[21],[22]) | αvβ3 integrin inhibition (αVβ3 integrin; [4]) |
| --- | --- | --- | --- | --- | --- | --- | --- | --- | --- | --- | --- | --- |
| CTTGPCCRQCKLKPAGTTCW-----KTS--LTSHYCTGKSCDCPLYPG (disulfide) [Obtustatin] | 0.232 µM | (5.34 ± 0.9) × 10^3 M^−1 s^−1 | (1.238 ± 0.8) × 10^−3 s^−1 | mid-nanomolar range | specific molecular recognition for both disintegrins, but the higher response for obtustatin; also recorded: specific binding of the obtustatin with the erythrocyte ghost membrane in the 1:1 binding mode | the highest difference is observable | block α1β1 integrin in a highly selective manner | potent, irreversible, and selective inhibitors | – | – | – | – |
| echistatin (from UniProt P17347) | – | – | – | – | – | – | – | – | 0.00027 µM | – | – | – |
| ECESGPCCRNCKFLKEGTICKR—ARGD-DMDDYCNGKTCDCPRNPHKGPAT (disulfide) [Echistatin] | 2.1 µM | (4.22 ± 0.002) × 10^2 M^−1 s^−1 | (8.85 ± 0.03) × 10^−4 s^−1 | low micromolar range | could be evidence of some unspecific binding | remarkably lower | – | – | – | highly effective inhibitor of platelet aggregation and cellular adhesion | potent irreversible αVβ3 integrin antagonist | potent, irreversible, and selective inhibitors |

From article PMC12692147, “Surface Acoustic Waves-Based Molecular Recognition of a Collagen Receptor on Human Erythrocytes” (International Journal of Molecular Sciences, 2025)
